Assays:
iPSC-fRPE cells [1] = assay: RPE pigmentation screen (light absorbance at 510 nm); type: cell-based, human; details: test compound 5 μM in 0.1% DMSO, 32 days, relative to plate internal DMSO controls (control = 1); for fold induction at 5 µM: Homo sapiens, 768 h
Experimental: (§1) Induced pluripotent stem cell-derived fetal RPE (iPSC-fRPE) cells acquired from the University of California, Santa Barbara, were generated from human fetal RPE cells that were isolated and reprogramed to iPSC, then differentiated and sorted for cellular markers to collect RPE progenitors. Vials were transported frozen on dry ice and stored in −80° C.
(§2) For the phenotypic screens, iPSC-fRPE cells were thawed and cultured in Matrigel-coated flasks with N1VA media containing 1XMEM solution supplemented with 2.2 g/L Sodium Bicarbonate, 0.25 mg/ml Taurine, 0.02 ug/ml Hydrocortisone, 0.013 ug/ml Triiodo Thyronine, 0.1 ug/ml Lipoic acid, 1% MEM Non-Essential Amino Acids, 1% Penicilin/Streptomycin, 2% Neurocult SM1 supplement and 1% N1 supplement. For the initial cultures, Thiazovivin was added to the media at 2 μM for the first 24 hr of incubation, after which the media was replaced with fresh N1VA media for additional three-day incubation at 37° C. with 5% CO2.
(§3) iPSC-fRPE cells were plated with N1VA media at a density of 10,000 cells per well in Matrigel-coated 96-well plates and cultured for 24 h prior to the treatment with test compounds at a final concentration of 5 μM in 0.1% DMSO. Internal controls for each test plate were (a) 0.1% DMSO as a negative control and (b) 0.1% DMSO+10 ng/ml human recombinant bFGF (STEMCELL) as a positive control.
To identify compounds that promote RPE pigmentation, cells were maintained for a period of 32 days and treated with medium containing the test or control compounds according to the media exchange regimen (FIG. 1). The degree of pigmentation was quantified by measuring the light absorbance at 510 nm with Cytation5 imaging reader (BIOTEK). Pigmentation values are finally reported relative to plate internal DMSO controls.

iPSC-fRPE cells [2] = assay: RPE cell proliferation (Hoechst 33342 live cell number); type: cell-based, human; details: test compound 5 μM in 0.1% DMSO, fixed at Day 5, Hoechst 33342 cell number, relative to plate internal DMSO controls (control = 1); for fold induction at 5 µM: Homo sapiens, RPE, 120 h, read-out: Relative Growth
Experimental: as §1, §2, §3
To assess proliferation of RPE cells, a replicate of compound-treated RPE cells were fixed at Day 5 and stained with Hoechst 33342 to determine live cell number with fluorescent microscopy. Cell numbers are reported relative to plate internal DMSO controls.

Molecule	fold induction at 5 µM (iPSC-fRPE cells [1])	fold induction at 5 µM (iPSC-fRPE cells [2])	Relative Pigmentation (iPSC-fRPE cells [1])	Relative Growth (iPSC-fRPE cells [2])
Fc1cc(F)c2c(c1)CC(c1nc3ccc(-c4cnco4)cc3[nH]1)CO2 (racemic) [Compound 6, 2-(6,8-difluoro-3,4-dihydro-2H-1-benzopyran-3-yl)-6-(1,3-oxazol-5-yl)-1H-1,3-benzodiazole]	2.3	1.42		
c1ccc2c(c1)CC(c1nc3ccc(-c4cnco4)cc3[nH]1)C2 [Compound 7, 2-(2,3-dihydro-1H-inden-2-yl)-6-(1,3-oxazolyl)-1H-1,3-benzodiazole]	2.36	1.34		
Fc1c(-c2cnco2)ccc2nc(C3COc4ccccc4C3)[nH]c12 (racemic) [Compound 9, 2-(3,4-dihydro-2H-1-benzopyran-3-yl)-4-fluoro-5-(1,3-oxazol-5-yl)-1H-1,3-benzodiazole]	4.27	1.13		
c1ccc2c(c1)C[C@H](c1nc3ccc(-c4cnco4)cc3[nH]1)CO2 [Compound 1, (R)-5-(2-(chroman-3-yl)-1H-benzo[d]imidazol-6-yl)oxazole]	4.98	1.7		
2-(chroman-3-yl)-6-(oxazol-5-yl)benzo[d]oxazole [Compound 10]			1.71	1.12
c1ccc2c(c1)CC(c1nc3ccc(-c4cnco4)cc3[nH]1)O2 (racemic) [Compound 3, 2-(2,3-dihydro-1-benzofuran-2-yl)-6-(1,3-oxazol-5-yl)-1H-1,3-benzodiazole]	2.77	1.36		
c1ccc2c(c1)C[C@@H](c1nc3ccc(-c4cnco4)cc3[nH]1)CO2 [Compound 2, (S)-5-(2-(chroman-3-yl)-1H-benzo[d]imidazol-6-yl)oxazole]	1.59	1.25		
Fc1ccc2c(c1)OCC(c1nc3ccc(-c4cnco4)cc3[nH]1)C2 (racemic) [Compound 4, 2-(7-fluoro-3,4-dihydro-2H-1-benzopyran-3-yl)-6-(1,3-oxazol-5-yl)-1H-1,3-benzodiazole]	5.08	1.78		
2-(chroman-3-yl)-6-(oxazol-5-yl)benzo[d]oxazole [Compound 11]			6.24	1.42
Fc1cc(-c2cnco2)cc2[nH]c(C3COc4ccccc4C3)nc12 (racemic) [Compound 8, 2-(3,4-dihydro-2H-1-benzopyran-3-yl)-7-fluoro-5-(1,3-oxazool-5-yl)-1H-1,3-benzodiazole]	2.75	1.49		
Clc1ccc2c(c1)CC(c1nc3ccc(-c4cnco4)cc3[nH]1)CO2 (racemic) [Compound 5, 2-(6-chloro-3,4-dihydro-2H-1-benzopyran-3-yl)-6-(1,3-oxazol-5-yl)-1H-1,3-benzodiazole]	1.04	1.52		
